Laboratory results taken from patent publication US20240108602A1, “TREATMENT OF MENTAL DISORDERS” (GH Research Ireland Limited, priority 2022, published 2024).

Tested on: patients with postpartum depression (PPD)
Experiment: Clinical trial of inhaled 5-MeO-DMT (IDR) in patients with postpartum depression
Method: The single-arm, open-label clinical trial will involve 15 adult female patients with clinically diagnosed postpartum depression (PPD).
The second dose (12 mg) will only be administered if: • a. A peak experience (total score of ≥75) has not been achieved following the 6 mg dose, and • b. The 6 mg dose was safe and well-tolerated according to the investigator, • c. Any psychoactive effects (PsE) of the prior dose have subsided, and • d. Pre-dose vital parameters and forced expiratory volume in one second (FEV1) are in normal range, or if outside of the normal range, are not clinically significant according to the investigator. • 3. Similarly, a third dose (18 mg) will only be administered if: • a. A peak experience (total score of ≥75) has not been achieved following the 12 mg dose, and • b. The 12 mg dose was safe and well-tolerated according to the investigator, and • c. Any PsE of the prior dose have subsided, and • d. Pre-dose vital parameters and forced expiratory volume in one second (FEV1) are in normal range, or if outside of the normal range, are not clinically significant according to the investigator.
The patients will be assessed for a peak psychedelic experience (based on a patient-scored visual analogue scale, the PE scale), sedation, and other endpoints after dosing.
Follow-up visits are planned for Day 1, and Day 7 after the dosing day.
The following criteria must be met by all patients considered for clinical trial participation: • 1. Is female and in the age range between 18 and 45 years (inclusive) at screening. • 2. Has a body mass index (BMI) in the range of 18.5 and 35 kg/m^2 (inclusive) at screening. • 3. Meets the trial criteria for PPD as assessed by a trial psychiatrist or registered psychologist: • a. Diagnosis of Major Depressive Disorder without psychotic features, confirmed by the Mini-International Neuropsychiatric Interview (MINI), with peri-partum onset that began no earlier than gestation and no later than the first 4 weeks postpartum. • b. Has a Montgomery-Åsberg Depression Rating Scale (MADRS) total score of equal to or greater than 28 at screening and pre-dose on Day 0. • 6. […] Patients must have a negative pregnancy test at screening and on the pre-test day (Day−1). • 5. Is willing to delay start of other antidepressant or anxiety medication until after the end of the trial at Day 7 and agrees to keep any psychotherapy unchanged during the trial.

## COc1ccc2[nH]cc(CCN(C)C)c2c1 [5-MeO-DMT]
PPD patient 1, Day 7
  BIMF item 12 (taking good care of my baby's physical needs) score: 6
  BIMF item 12 Δ vs Day 0: 0
  BIMF item 13 (taking good care of my physical needs) score: 5
  BIMF item 13 Δ vs Day 0: 1
  BIMF item 14 (good decisions about my baby's health and well being) score: 6
  BIMF item 14 Δ vs Day 0: 0
  BIMF item 15 (My baby and I are getting into a routine) score: 6
  BIMF item 15 Δ vs Day 0: 1
  BIMF item 16 (I worry about how other people judge me) score: 5
  BIMF item 16 Δ vs Day 0: 2
  BIMF item 17 (able to take care of my baby and my other responsibilities) score: 5
  BIMF item 17 Δ vs Day 0: 0
  BIMF item 18 (Anxiety or worry often interferes with my mothering ability) score: 5
  BIMF item 18 Δ vs Day 0: 3
  BIMF item 19 (getting better at taking care of my baby) score: 1
  BIMF item 19 Δ vs Day 0: 1
  BIMF item 20 (satisfied with the job I am doing as a new mother) score: 5
  BIMF item 20 Δ vs Day 0: −1
  BPRS Anxiety improvement: 6
  BPRS Anxiety score: 1
  BPRS Blunted affect improvement: 0
  BPRS Blunted affect score: 1
  BPRS Conceptual disorganization improvement: 0
  BPRS Conceptual disorganization score: 1
  BPRS Depressive Mood improvement: 5
  BPRS Depressive Mood score: 1
  BPRS Disorientation improvement: 0
  BPRS Disorientation score: 1
  BPRS Emotional withdrawal improvement: 4
  BPRS Emotional withdrawal score: 1
  BPRS Excitement improvement: 1
  BPRS Excitement score: 1
  BPRS Grandiosity improvement: 0
  BPRS Grandiosity score: 1
  BPRS Guilt feelings improvement: 5
  BPRS Guilt feelings score: 1
  BPRS Hallucinatory behaviour improvement: 0
  BPRS Hallucinatory behaviour score: 1
  BPRS Hostility improvement: 0
  BPRS Hostility score: 1
  BPRS Mannerisms and Posturing improvement: 0
  BPRS Mannerisms and Posturing score: 1
  BPRS Motor retardation improvement: 0
  BPRS Motor retardation score: 1
  BPRS Somatic Concern improvement: 5
  BPRS Somatic Concern score: 1
  BPRS Suspiciousness improvement: 0
  BPRS Suspiciousness score: 1
  BPRS Tension improvement: 5
  BPRS Tension score: 1
  BPRS Uncooperativeness improvement: 0
  BPRS Uncooperativeness score: 1
  BPRS Unusual Thought Content improvement: 0
  BPRS Unusual Thought Content score: 1
  MADRS Apparent sadness improvement: 5
  MADRS Apparent sadness score: 0
  MADRS Concentration Difficulties improvement: 0
  MADRS Concentration Difficulties score: 0
  MADRS Inability to Feel improvement: 3
  MADRS Inability to Feel score: 0
  MADRS Inner Tension improvement: 4
  MADRS Inner Tension score: 1
  MADRS Lassitude improvement: 3
  MADRS Lassitude score: 0
  MADRS Pessimistic Thoughts improvement: 4
  MADRS Pessimistic Thoughts score: 0
  MADRS Reduced Sleep improvement: 5
  MADRS Reduced Sleep score: 0
  MADRS Reduced appetite improvement: 0
  MADRS Reduced appetite score: 0
  MADRS Reported sadness improvement: 4
  MADRS Reported sadness score: 0
  MADRS Suicidal Thoughts improvement: 0
  MADRS Suicidal Thoughts score: 0
  Total MADRS improvement: 28
  Total MADRS score: 1
PPD patient 1, Day 7, from 92 to 105
  BIMF total score improvement: 14%
PPD patient 1, Discharge
  BPRS Anxiety improvement: 6
  BPRS Anxiety score: 1
  BPRS Blunted affect improvement: 0
  BPRS Blunted affect score: 1
  BPRS Conceptual disorganization improvement: 0
  BPRS Conceptual disorganization score: 1
  BPRS Depressive Mood improvement: 5
  BPRS Depressive Mood score: 1
  BPRS Disorientation improvement: 0
  BPRS Disorientation score: 1
  BPRS Emotional withdrawal improvement: 4
  BPRS Emotional withdrawal score: 1
  BPRS Excitement improvement: 1
  BPRS Excitement score: 1
  BPRS Grandiosity improvement: 0
  BPRS Grandiosity score: 1
  BPRS Guilt feelings improvement: 5
  BPRS Guilt feelings score: 1
  BPRS Hallucinatory behaviour improvement: 0
  BPRS Hallucinatory behaviour score: 1
  BPRS Hostility improvement: 0
  BPRS Hostility score: 1
  BPRS Mannerisms and Posturing improvement: 0
  BPRS Mannerisms and Posturing score: 1
  BPRS Motor retardation improvement: 0
  BPRS Motor retardation score: 1
  BPRS Somatic Concern improvement: 5
  BPRS Somatic Concern score: 1
  BPRS Suspiciousness improvement: 0
  BPRS Suspiciousness score: 1
  BPRS Tension improvement: 5
  BPRS Tension score: 1
  BPRS Uncooperativeness improvement: 0
  BPRS Uncooperativeness score: 1
  BPRS Unusual Thought Content improvement: 0
  BPRS Unusual Thought Content score: 1
PPD patient 1, IDR 6 mg then 12 mg
  time to clinical remission after administration: ≤ 2 h
PPD patient 1, nominal dose 6 mg
  PES score (intensity of psychedelic experience): 17.3
PPD patient 1, shortly after administration
  changes in vital parameters: temporary, clinically non-relevant increase in heart rate and blood pressure
PPD patient 1, subsequent dose 12 mg
  PES score (intensity of psychedelic experience): 85.7
PPD patient 2
  ECG, safety laboratory analyses, CADSS: unremarkable
  MADRS response (at least 50% improvement) and MADRS remission (total score 10 or less): fulfilled standard criteria
  reported adverse events (mild, resolved spontaneously): vomiting on Day 0 and headache on Day 5
PPD patient 2, nominal dose 6 mg
  PES score (intensity of psychedelic experience): 1
PPD patient 2, shortly after administration
  changes in vital parameters: temporary, clinically non-relevant increase in heart rate
PPD patient 2, subsequent dose 12 mg
  PES score (intensity of psychedelic experience): 94.7
